Experimental data from US11542273B2, “Amide compound having bet proteolysis-inducing action and medicinal application thereof” (MITSUBISHI TANABE PHARMA CORPORATION, priority 2018, dated 2023).

Experiments:
[1] = tested on: human chronic myeloid leukemia K562 cell; assay: Cytotoxic action on cancer cells (WST-8, 96 hr); assay type: cell-based; conditions: 96 hr culture
Procedure, shortened: (§1)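 Viability was read by WST-8 after 96 hr of compound exposure, normalised to untreated wells, with cells pre-cultured overnight in 10% FBS/RPMI1640 at 37 °C and 5% CO2. IC50 comes from a straight line between the two survival points enclosing 50%.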

[2] = tested on: human non-small cell lung cancer NCI-H1975 cell; assay: Cytotoxic action on cancer cells (WST-8, 96 hr); assay type: cell-based; conditions: 96 hr culture
Procedure, shortened: as §1

[3] = tested on: human gastric cancer SNU-16 cell; assay: Cytotoxic action on cancer cells (WST-8, 96 hr); assay type: cell-based; conditions: SNU-16 cells, 96 hr culture
Procedure, shortened: as §1

[4] = tested on: human uterine sarcoma MES-SA cell; assay: Cytotoxic action on cancer cells (WST-8, 96 hr); assay type: cell-based; conditions: 96 hr culture
Procedure, shortened: as §1

[5] = tested on: human multiple myeloma MM.1S cell; assay: Cytotoxic action on cancer cells (WST-8, 96 hr); assay type: cell-based; conditions: MM1.S, MM.1S cells, 96 hr culture
Procedure, shortened: as §1

[6] = tested on: human small cell lung cancer NCI-H82 cell; assay: Cytotoxic action on cancer cells (WST-8, 96 hr); assay type: cell-based; conditions: 96 hr culture
Procedure, shortened: as §1

[7] = tested on: human prostate cancer LNCaP cells; assay: Cytotoxic action on cancer cells (WST-8, 96 hr); assay type: cell-based; conditions: Homo sapiens, LNCaP, 96 h, read-out: LNCaP cytotoxic activity: IC50
Procedure, shortened: as §1

[8] = tested on: human castration-resistant prostate cancer PC-3 cell; assay: Cytotoxic action on cancer cells (WST-8, 96 hr); assay type: cell-based; conditions: PC-3 cells (printed P0-3 in table), 96 hr culture
Procedure, shortened: as §1

[9] = tested on: human liver cancer Hep G2 cell; assay: Cytotoxic action on cancer cells (WST-8, 96 hr); assay type: cell-based; conditions: HepG2, 96 hr culture
Procedure, shortened: as §1

[10] = tested on: human acute myeloid leukemia MV-4-11 cell; assay: Cytotoxic action on cancer cells (WST-8, 96 hr); assay type: cell-based; conditions: MV4-11, MV-4-11 cells, 96 hr culture
Procedure, shortened: as §1

[11] = tested on: human diffuse large B-cell lymphoma SU-DHL-6 cell; assay: Cytotoxic action on cancer cells (WST-8, 96 hr); assay type: cell-based; conditions: SU-DHL-6 cells, 96 hr culture
Procedure, shortened: as §1

[12] = tested on: human large cell lung cancer NCI-H460 cell; assay: Cytotoxic action on cancer cells (WST-8, 96 hr); assay type: cell-based; conditions: 96 hr culture
Procedure, shortened: as §1

[13] = tested on: human triple negative breast cancer MDA-MB-231 cell; assay: Cytotoxic action on cancer cells (WST-8, 96 hr); assay type: cell-based; conditions: MDA-MB-231 cells, 96 hr culture
Procedure, shortened: as §1

[14] = tested on: human breast cancer ZR-75-1 cell; assay: Cytotoxic action on cancer cells (WST-8, 96 hr); assay type: cell-based; conditions: ZR-75-1 cells, 96 hr culture
Procedure, shortened: as §1

[15] = tested on: human bladder cancer 5637 cell; assay: Cytotoxic action on cancer cells (WST-8, 96 hr); assay type: cell-based; conditions: 5637 cells, 96 hr culture
Procedure, shortened: as §1

[16] = tested on: human pancreatic cancer AsPC-1 cell; assay: Cytotoxic action on cancer cells (WST-8, 96 hr); assay type: cell-based; conditions: ASPC1, AsPC-1 cells, 96 hr culture
Procedure, shortened: as §1

[17] = tested on: human T-cell leukemia Jurkat cells; assay: Cytotoxic action on cancer cells (WST-8, 96 hr); assay type: cell-based; conditions: 96 hr culture
Procedure, shortened: as §1

[18] = tested on: human glioma U-87 MG cell; assay: Cytotoxic action on cancer cells (WST-8, 96 hr); assay type: cell-based; conditions: U-87 MG cells, 96 hr culture
Procedure, shortened: as §1

[19] = tested on: human colorectal cancer HCT116 cell; assay: Cytotoxic action on cancer cells (WST-8, 96 hr); assay type: cell-based; conditions: HCT-116, 96 hr culture
Procedure, shortened: as §1

[20] = tested on: human Burkitt lymphoma Raji cell; assay: Cytotoxic action on cancer cells (WST-8, 96 hr); assay type: cell-based; conditions: 96 hr culture
Procedure, shortened: as §1

[21] = tested on: human ovarian cancer A2780 cell; assay: Cytotoxic action on cancer cells (WST-8, 96 hr); assay type: cell-based; conditions: 96 hr culture
Procedure, shortened: as §1

[22] = tested on: human acute myeloid leukemia MV-4-11 cell transplanted mouse; assay: Antitumor effect in human acute myeloid leukemia MV-4-11 cell transplanted mouse; assay type: in vivo; conditions: MV4-11, iv, 360 h, read-out: tumor growth inhibitory rate
Protocol: The in vivo antitumor effect of the compound of the present invention was studied using human acute myeloid leukemia MV-4-11 cell transplanted mouse. MV-4-11 cells were subcutaneously transplanted into the inguinal region of male, 6-week-old BALB/c nude mouse (5×10^6 cells/mouse). The compound of the present invention was administered into the tail vein on days 1, 5, 9, 13 from the time point when the assumed tumor volume determined from 1/2ab^2 (a is major axis and b is minor axis of tumor) reached about 100 mm^3 (day 1). The control group was administered with a solvent, 10% hydroxypropyl-β-cyclodextrin solution. On day 15, the tumor was isolated, the weight was measured, and the tumor growth inhibitory rate IR (%) was calculated by the following formula. tumor growth inhibitory rate IR (%)=(1−tumor weight of administration group/tumor weight of nonadministration control group)×100

Structure (SMILES) | IC50 [1] [nM] | IC50 [2] [nM] | IC50 [3] [nM] | IC50 [4] [nM] | IC50 [5] [nM] | IC50 [6] [nM] | IC50 [7] [nM] | IC50 [8] [nM] | IC50 [9] [nM] | IC50 [10] [nM] | IC50 [11] [nM] | IC50 [12] [nM] | IC50 [13] [nM] | IC50 [14] [nM] | IC50 [15] [nM] | IC50 [16] [nM] | IC50 [17] [nM] | IC50 [18] [nM] | IC50 [19] [nM] | IC50 [20] [nM] | also measured
COC(=O)C[C@@H]1N=C(c2ccc(-c3ccc(OCC(=O)N[C@H](C(=O)N4C[C@H](O)C[C@H]4C(=O)N[C@@H](C)c4ccc(-c5scnc5C)cc4)C(C)(C)C)c(C#N)c3)cc2)c2c(sc(C)c2C)-n2c(C)nnc21 [Example 9, methyl [(6S)-4-{3′-cyano-4′-[2-({(2S)-1-[(2S,4R)-4-hydroxy-2-({(1S)-1-[4-(4-methyl-1,3-thiazol-5-yl)phenyl]ethyl}carbamoyl)pyrrolidin-1-yl]-3,3-dimethyl-1-oxobutan-2-yl}amino)-2-oxoethoxy][1,1′-biphenyl]-4-yl}-2,3,9-trimethyl-6H-thieno[3,2-f][1,2,4]triazolo[4,3-a][1,4]diazepin-6-yl]acetate] | 2.2 | 3.7 | 3 | 2.6 | 0.14 | 15 | 0.16 | 1 | 33 | 0.015 | 0.57 | 24 | 5.7 | 0.96 | 0.45 | 30 | 1.2 | 9.1 | 4.7 | 1.9 | IC50 [21]: 0.16 nM; inhibition in vivo at 1 mg/kg [22]: 98.5%; inhibition in vivo at 5 mg/kg [22]: 98.4%
COC(=O)C[C@@H]1N=C(c2ccc(N3CC[C@@H](Oc4ccc5oc(C(=O)N[C@H](C(=O)N6C[C@H](O)C[C@H]6C(=O)N[C@@H](C)c6ccc(-c7scnc7C)cc6)C(C)(C)C)cc5c4)C3)cc2)c2c(sc(C)c2C)-n2c(C)nnc21 [Example 142, methyl [(6S)-4-{4-[(3R)-3-{[2-({(2S)-1-[(2S,4R)-4-hydroxy-2-({(1S)-1-[4-(4-methyl-1,3-thiazol-5-yl)phenyl]ethyl}carbamoyl)pyrrolidin-1-yl]-3,3-dimethyl-1-oxobutan-2-yl}carbamoyl)-1-benzofuran-5-yl]oxy}pyrrolidin-1-yl]phenyl}-2,3,9-trimethyl-6H-thieno[3,2-f][1,2,4]triazolo[4,3-a][1,4]diazepin-6-yl]acetate] | 2.1 | 1.8 | 0.55 | 1.6 | 0.23 | 5.9 | 0.3 | 0.34 | 7.4 | 0.041 | 0.93 | 11 | 0.98 | 0.49 | 0.34 | 5.7 | 0.36 | 4 | 3.9 | 0.71 | IC50 [21]: 0.27 nM; inhibition in vivo at 3 mg/kg [22]: 97.4%
COC(=O)C[C@@H]1N=C(c2ccc(-c3ccc(C(=O)N[C@H](C(=O)N4C[C@H](O)C[C@H]4C(=O)N[C@@H](C)c4ccc(-c5scnc5C)cc4)C(C)(C)C)c(Cl)c3)cc2)c2c(sc(C)c2C)-n2c(C)nnc21 [Example 157, methyl {(6S)-4-[3′-chloro-4′-({(2S)-1-[(2S,4R)-4-hydroxy-2-({(1S)-1-[4-(4-methyl-1,3-thiazol-5-yl)phenyl]ethyl}carbamoyl)pyrrolidin-1-yl]-3,3-dimethyl-1-oxobutan-2-yl}carbamoyl)[1,1′-biphenyl]-4-yl]-2,3,9-trimethyl-6H-thieno[3,2-f][1,2,4]triazolo[4,3-a][1,4]diazepin-6-yl}acetate] | 1.2 | 2.2 | 1.2 | 1.7 | 0.081 | 4.5 | 0.4 | 0.41 | 12 | 0.029 | 0.39 | 23 | 1.8 | 2 | 0.33 | 23 | 0.46 | 18 | 4.5 | 0.59 | IC50 [21]: 0.15 nM; inhibition in vivo at 1 mg/kg [22]: 95.5%; inhibition in vivo at 3 mg/kg [22]: 98.2%
